Reference: US9546176B2, “Small molecule bicyclic and tricyclic CFTR correctors” (DISCOVERYBIOMED, INC., priority 2012, dated 2017)
Where two headings read alike, the source gives them in different places.

Biological target: T1, delF508-CFTR (Homo sapiens, UniProt P13569, DEL508-508)
T1 construct: endogenous in cells; host or cells: CFBE41o- human CF bronchial epithelial cells (delF508 homozygous)
Experiment: SPQ halide-sensitive fluorescence dye assay for rescue of halide efflux (8-point concentration-response)
Assay type: cell-based
Settings: for EC50: read-out: SPQ EC50; for potency and efficacy compared with VX-809 in SPQ assay: versus VX-809
Procedure: The method of profiling can include detecting the rescue of halide efflux from a cell. The step of detecting a rescue of halide efflux from the cell can be monitored using the halide quenched dye 6-methoxy-N-(3-sulfopropyl)-quinolinium (SPQ, Molecular Probes Inc., Eugene, Oreg.). In this method, cells are treated with a compound as described herein for a period of time (e.g., 48 hours). The rescue or correction of halide efflux is then detected using the SPQ assay with the halide dye. […] Optionally, the halide efflux is chloride efflux. The method of screening can further comprise performing the method with multiple concentrations of the compound.
The compounds were initially subjected to the SPQ halide-sensitive fluorescence dye profiling assay for rescue or correction of membrane chloride ion permeability or transport with an 8-point concentration-response curve. The EC50 values for the compounds described herein were determined using SPQ (Table 1). The ΔSPQ value was calculated by determining the difference between the maximum and minimum SPQ values for the compounds.
To perform the SPQ high throughput screening assay, CFBE41o-cells were seeded into 96-well microtiter plates and were loaded with the fluorescent halide-sensitive dye, SPQ, in serum-containing culture medium. Certain wells were loaded with known positive control corrector molecules, including the industry standard Vertex 809 (VX-809; Vertex Pharmaceuticals, Cambridge, Mass.) at 3 μM, which is the maximally effective profiling dose for VX-809. The test compounds were loaded into wells and were tested in triplicate wells at a 10 μM dose and incubated over 48 hours at room temperature. During the 48 hour period, SPQ was absorbed. Plates were washed in a sodium chloride (NaCl) based Ringer and read once over two minutes to set the baseline SPQ fluorescence activity. Then, NaCl was replaced by sodium nitrate (NaNO3) based Ringer. The plates were read twice over four minutes. The primary high throughput screen (HTS) data were analyzed to detect any function of rescued delF508-CFTR under basal conditions. The plate was read up to two times to complete the SPQ HTS assay.

T1 sequence (P13569 with tags, fused parts or gaps DEL508-508): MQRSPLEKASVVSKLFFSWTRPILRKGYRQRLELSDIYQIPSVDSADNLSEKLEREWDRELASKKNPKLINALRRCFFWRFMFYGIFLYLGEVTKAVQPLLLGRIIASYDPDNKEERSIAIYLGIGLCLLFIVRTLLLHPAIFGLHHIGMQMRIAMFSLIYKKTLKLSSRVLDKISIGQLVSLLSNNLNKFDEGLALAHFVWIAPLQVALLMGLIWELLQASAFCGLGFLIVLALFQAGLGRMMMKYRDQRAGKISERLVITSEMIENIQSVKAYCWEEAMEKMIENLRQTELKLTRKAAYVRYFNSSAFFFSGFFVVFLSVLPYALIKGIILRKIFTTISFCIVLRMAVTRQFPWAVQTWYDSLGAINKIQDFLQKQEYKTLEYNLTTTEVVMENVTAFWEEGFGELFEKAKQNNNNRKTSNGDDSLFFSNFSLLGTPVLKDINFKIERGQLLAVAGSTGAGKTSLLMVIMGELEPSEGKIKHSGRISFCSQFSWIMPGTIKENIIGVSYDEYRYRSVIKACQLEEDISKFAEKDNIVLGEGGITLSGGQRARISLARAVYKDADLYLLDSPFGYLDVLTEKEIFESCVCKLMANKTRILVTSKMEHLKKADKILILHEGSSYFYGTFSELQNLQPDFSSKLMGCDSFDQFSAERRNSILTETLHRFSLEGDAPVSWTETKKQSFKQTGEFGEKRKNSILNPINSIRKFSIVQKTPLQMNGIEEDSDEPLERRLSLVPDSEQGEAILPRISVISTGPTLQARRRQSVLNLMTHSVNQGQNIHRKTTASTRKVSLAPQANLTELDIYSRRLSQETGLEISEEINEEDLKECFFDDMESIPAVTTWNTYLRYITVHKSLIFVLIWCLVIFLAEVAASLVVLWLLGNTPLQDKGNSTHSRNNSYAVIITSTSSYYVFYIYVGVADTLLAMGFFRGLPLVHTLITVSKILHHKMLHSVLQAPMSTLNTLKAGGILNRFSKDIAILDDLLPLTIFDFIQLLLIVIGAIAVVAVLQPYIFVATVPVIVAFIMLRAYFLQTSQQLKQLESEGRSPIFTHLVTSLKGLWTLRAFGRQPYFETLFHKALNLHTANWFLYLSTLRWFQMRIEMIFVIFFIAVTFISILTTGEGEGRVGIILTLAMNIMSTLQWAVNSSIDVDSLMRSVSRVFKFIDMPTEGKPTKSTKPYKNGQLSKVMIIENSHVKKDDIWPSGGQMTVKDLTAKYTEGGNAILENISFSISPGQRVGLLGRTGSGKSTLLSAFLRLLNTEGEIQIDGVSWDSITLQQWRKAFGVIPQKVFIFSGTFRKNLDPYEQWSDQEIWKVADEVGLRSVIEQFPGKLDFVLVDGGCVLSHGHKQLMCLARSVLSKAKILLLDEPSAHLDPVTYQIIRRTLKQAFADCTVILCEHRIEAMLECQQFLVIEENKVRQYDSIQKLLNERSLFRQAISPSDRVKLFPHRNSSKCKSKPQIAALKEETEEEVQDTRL

Row | SMILES | ΔSPQ (difference between maximum and minimum SPQ values) (CFBE41o- cells, 48 h) [RFU] | EC50 (CFBE41o- cells, 48 h) [µM] | ΔSPQ (Trial 2) | EC50 (Trial 2) [µM] | potency and efficacy compared with VX-809 in SPQ assay | SPQ EC50 (CFBE41o- cells, 48 h)
1 | Cc1c(C)n2c3c(=O)n(C/C=C/c4ccccc4)c(=O)n(C)c3nc2n1CCCO [Compound I-50] | 3639 | > 30 |  |  |  | 
2 | CCn1c(=O)c2c(nc3oc(C(C)(C)C)cn32)n(C)c1=O [Compound II-3] | 3935 | 8.6 | (Trial 2: 4413) RFU | 12.7 | superior potency and efficacy to VX-809 | 
3 | C=CCn1c(=O)c2c(nc3n2CC(C(C)(C)C)=NN3CC)n(C)c1=O [Compound V-5] | 9200 | 8 |  |  |  | 
4 | CCn1c(=O)c2c(nc3n(-c4cccc(C)c4)c(C)c(C)n23)n(C)c1=O [Compound I-6] | 6023 | 8.9 |  |  |  | 
5 | Cn1c(=O)n(Cc2ccccc2)c(=O)c2c1nc1oc(C(C)(C)C)cn12 [Compound II-2] | 13312 | 10.4 |  |  | superior potency and efficacy to VX-809 | 
6 | C=CCn1c(C)cn2c3c(=O)n(Cc4ccccc4C)c(=O)n(C)c3nc12 [Compound I-16] | 6996 | 17.7 |  |  |  | 
7 | C=CCn1c(Oc2ccc(Br)cc2)nc2c1c(=O)n(C)c(=O)n2C [Compound III-1] | 8353 | 11.1 |  |  |  | 
8 | CCn1c(=O)c2c(nc3n(-c4ccccc4)c(C)c(C)n23)n(C)c1=O [Compound I-10] | 4005 | 4 |  |  |  | 
9 | CN(C)CCNc1nc2c(=O)n(C)c(=O)n(C)c2[nH]1 [Compound B-9] |  |  |  |  |  | No effect
10 | C=CCn1c(=O)c2c(nc3n(CC(C)C)c(C)c(C)n23)n(C)c1=O [Compound I-38] | 8563 | 7.8 |  |  |  | 
11 | C/C=C/Cn1c(=O)c2c(nc3oc(C(C)(C)C)cn32)n(C)c1=O [II-1] | 7993 | 12.4 |  |  |  | 
12 | C=CCn1c(=O)c2c(nc3n(C(C)CC)c(C)c(C)n23)n(C)c1=O (stereo not drawn) [Compound I-4] | 11108 | 5.4 |  |  |  | 
13 | C=C(C)CN1N=C(C)Cn2c1nc1c2c(=O)n(C)c(=O)n1C [Compound V-25] | 1927 | 10.6 |  |  |  | 
14 | CCn1c(=O)c2c(nc3n2C(C)C(C)=NN3CCC(C)C)n(C)c1=O (stereo not drawn) [Compound V-23] | 1055 | > 30 |  |  |  | 

Now from value to molecule:

Row | ΔSPQ (difference between maximum and minimum SPQ values) (CFBE41o- cells, 48 h) [RFU] | EC50 (CFBE41o- cells, 48 h) [µM] | ΔSPQ (Trial 2) | EC50 (Trial 2) [µM] | potency and efficacy compared with VX-809 in SPQ assay | SPQ EC50 (CFBE41o- cells, 48 h) | SMILES
15 | 5235 | 7.1 |  |  |  |  | CCCn1c(=O)c2c(nc3n(-c4ccccc4O)c(C)c(C)n23)n(C)c1=O [Compound I-18]
16 | 8746 | > 30 |  |  |  |  | CCCn1c(=O)c2c(nc3n2CCCN3c2ccc(C)cc2)n(C)c1=O [IV-6]
17 | 5519 | > 30 |  |  |  |  | CCCN1N=C(C)C(C)n2c1nc1c2c(=O)n(CCC)c(=O)n1C (stereo not drawn) [Compound V-16]
18 | 4315 | > 30 |  |  |  |  | CC(C)CCn1c(=O)c2c(nc3n2CCN3Cc2ccco2)n(C)c1=O [Compound I-55]
19 | 4548 | > 30 |  |  |  |  | C=CCN1N=C(C)C(C)n2c1nc1c2c(=O)n(CCC)c(=O)n1C (stereo not drawn) [Compound V-15]
20 | 2100 | 6.5 |  |  | superior potency and efficacy to VX-809 |  | Cc1cn2c3c(=O)n(C)c(=O)n(C)c3nc2n1-c1ccc(O)cc1 [Compound A-3]
21 | 3801 | 17.8 |  |  |  |  | C=CCn1c(=O)c2c(nc3n(CCC)c(C)cn23)n(C)c1=O [Compound I-1]
22 | 5779 | 10.1 |  |  |  |  | CCn1c(=O)c2c(nc3n(-c4ccc(F)cc4)c(C)c(C)n23)n(C)c1=O [Compound I-7]
